Assay results published in ChEMBL document CHEMBL1201862, “PubChem BioAssay data set” (2004).
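Growth conditions: 96-well plates. Treatment: test compound, 48 hours, 5 concentrations. Analysis: linear interpolation between bracketing concentrations; unreached endpoints set to highest concentration. GI50: concentration for 50% inhibition of growth.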 The source made the active and inactive calls. Cut-off read from the data, not from the text of the source: active = GI50 up to about 1.1 µM and inactive = higher.

Assays:
Assay in all cases: NCI-60 cell line screen, 48 h
DLD-1 = test system: DLD-1
XF498 = test system: XF498
M19-MEL = test system: M19-MEL
KM-20L2 = test system: KM-20L2
SNB-78 = test system: SNB-78
DMS-114 = test system: DMS-114
DMS-273 = test system: DMS-273
LXFL 529 = test system: LXFL 529
RXF 631 = test system: RXF 631

SMILES	GI50 (DLD-1)	GI50 (XF498)	GI50 (M19-MEL)	GI50 (KM-20L2)	GI50 (SNB-78)	GI50 (DMS-114)	GI50 (DMS-273)	GI50 (LXFL 529)	GI50 (RXF 631)
Nc1ccn(C2OC(COP(=O)(O)Oc3ccccc3)C(O)C2O)c(=O)n1 (configuration not stated)	> 100 µM (inactive)	< 0.01 µM (active)	50.2 µM (inactive)	> 39.7 µM (inactive)	> 100 µM (inactive)	13.7 µM (inactive)	18.4 µM (inactive)	–	–
C/C(CCOC1CCCCO1)=C(\C)[Si](C)(C)C (configuration not stated)	> 100 µM (inactive)	> 100 µM (inactive)	> 100 µM (inactive)	> 100 µM (inactive)	> 100 µM (inactive)	> 100 µM (inactive)	–	> 100 µM (inactive)	–
O=C(Nc1nnc(S)[nH]1)C(=O)C(c1cnc2ccc([N+](=O)[O-])cc2n1)[N+](=O)[O-] (configuration not stated)	> 100 µM (inactive)	> 100 µM (inactive)	> 100 µM (inactive)	81.3 µM (inactive)	> 100 µM (inactive)	47 µM (inactive)	–	> 100 µM (inactive)	> 100 µM (inactive)
O=C1c2ccccc2C(=O)C1C(c1ccc([N+](=O)[O-])cc1)C1C(=O)c2ccccc2C1=O	34.8 µM (inactive)	55.2 µM (inactive)	–	> 100 µM (inactive)	33.4 µM (inactive)	> 10 µM (inactive)	99.1 µM (inactive)	30.8 µM (inactive)	12.1 µM (inactive)
C=CCCCC12CCCc3cccc(c31)NC2=O (configuration not stated)	19.6 µM (inactive)	20.6 µM (inactive)	–	21.2 µM (inactive)	–	17.3 µM (inactive)	–	–	20.6 µM (inactive)
CCOC(=O)N1CCC(=O)C(CNC23CC4CC(CC(C4)C2)C3)C1 (configuration not stated)	21.1 µM (inactive)	18.1 µM (inactive)	20.4 µM (inactive)	> 100 µM (inactive)	> 10 µM (inactive)	–	25.2 µM (inactive)	18.3 µM (inactive)	> 100 µM (inactive)
CCC(/C(=N/NC(=O)C[N+](C)(C)C)c1ccccc1)C1OC(=O)c2ccccc21 (configuration not stated)	–	> 100 µM (inactive)	> 100 µM (inactive)	> 100 µM (inactive)	> 100 µM (inactive)	> 100 µM (inactive)	> 100 µM (inactive)	> 100 µM (inactive)	> 100 µM (inactive)
O=C(O)CSc1nnc(-c2ccc(O)cc2)[nH]1	> 100 µM (inactive)	> 100 µM (inactive)	> 100 µM (inactive)	> 100 µM (inactive)	> 100 µM (inactive)	> 100 µM (inactive)	> 100 µM (inactive)	–	> 100 µM (inactive)
Cc1c(C(=O)/C=C/c2ccc(Cl)cc2)[n+]([O-])c2ccccc2[n+]1[O-]	7.94 µM (inactive)	–	15.2 µM (inactive)	7.11 µM (inactive)	22.1 µM (inactive)	4.1 µM (inactive)	7.64 µM (inactive)	9.08 µM (inactive)	34.5 µM (inactive)
CC(=O)OC(/C=C1/C=CC(=O)O1)COC(=O)c1ccccc1 (configuration not stated) [ACETYLMELODORINOL]	> 31.2 µM (inactive)	> 31.2 µM (inactive)	> 31.2 µM (inactive)	> 31.2 µM (inactive)	> 31.2 µM (inactive)	> 31.2 µM (inactive)	> 31.2 µM (inactive)	> 31.2 µM (inactive)	–
COC1=CC(=O)c2c(c(O)c3oc4cc(OC)cc(C)c4c(=O)c3c2O)C1=O [BIKAVERIN]	1.8 µM (inactive)	0.942 µM (active)	0.908 µM (active)	5.94 µM (inactive)	3.41 µM (inactive)	0.462 µM (active)	0.759 µM (active)	–	–
